Test results as given in patent US20240025922A1, “TETRAHYDROPYRIDO[3,4-d]PYRIMIDINES AS HPK1 INHIBITORS” (Merck Patent GmbH, priority 2022, published 2024).

What was measured:
[1] = target: HPK1 (SLP76 phosphorylation at Ser376 in Jurkat and EL-4 cells) (Homo sapiens, UniProt Q92918); assay type: cell-based; details: αCD3/αCD28 Dynabeads stimulated cells, pSLP76 (Ser376) detection; read-out: HPK1 pSLP76 IC50
Method: Cellular Assay—Phospho-SLP-76 (Ser376).
Inhibition of HPK1 enzymatic activity in cells was determined by detection of SLP76 phosphorylation at Ser376 residue in lysate from Jurkat (human) and EL-4 (mouse) cells. Jurkat and EL-4 cells express both HPK1 and SLP76 naturally. All cells were cultured in RPMI 1640 media containing 10% heat inactivated fetal bovine serum (FBS) and 1×Penicillin-Streptomycin. In either Jurkat or El-4 assay, cells were pre-incubated with test compounds prior to T cell stimulation by respective αCD3/αCD28 Dynabeads™. For detection, plates were read on the Envision and percent inhibition and IC50 were determined by Smart fit in Genedata Analyzer.
For Jurkat cells: 35 μL cell suspension were dispensed at a density of 30,000 cells/well in 384-well plates containing HBSS (Gibco, 14025076)+0.1% BSA). 10-point logarithmic serial dilution of test compounds in DMSO were prepared by a Hamilton automated liquid handling robot and 35 nL was transferred into each well by an Echo liquid handler. After 60 min. pre-incubation, the cells were stimulated by adding 5 μL human T activator αCD3/αCD28 Dynabeads™ (Gibco, 11132D) at 1.2×107 beads/mL for 15 minutes at 37° C. Detection of Ser376 phosphorylation status was accomplished by first adding 10 μL of 5×AlphaLISA lysis buffer (Perkin Elmer, ALSU-PSLP-A500) to each well of the cell plate using a Multidrop Combi (5840300), followed by 20 minutes shaking. 10 μL cell lysate from each treatment were then transferred to a white 384-well plate (Corning 3572) and incubated with AlphaLISA acceptor beads for one hour (AlphaLISA SureFire Ultra p-SLP76(Ser376), Perkin Elmer, ALSU-PSLP-A500), and donor beads for additional 2 hours at room temperature in the dark.
For EL-4.IL2 assay, 50 μL cell suspension at 2×10^6 cells/mL in HBSS were first dispensed into 384-well plates and then 50 nL serial dilutions of test compounds were spotted to each well by an Echo liquid handler. After 60 min. incubation at 37° C., cells were stimulated by adding 5 μL mouse T cell activator αCD3/αCD28 Dynabeads™ (ThermFisher Scientific, 11452D) for 30 minutes at 37° C. After a brief spin and subsequent supernatant discarded, 12.5 μL of Cisbio lysis buffer were added to each well and plates were shaken for 30 min at 450 RPM. For detection, 4 μL prepared HTRF antibody mixture (Cisbio, 63ADK000U) in detection buffer were mixed with 16 μl of cell lysate and plates were incubated at room temperature for 19 hours prior to EnVision reading.

[2] = target: full-length human HPK1 (MAP4K1) (Homo sapiens (Human), UniProt Q92918); experiment: HPK1 Kinase Assay (Biochemical Assay), ADP-Glo; details: GST-HPK1 3.2 nM, 10 μM ATP, MBP substrate, read-out: HPK1 enzymatic IC50
full-length human HPK1 (MAP4K1), sequence (Q92918 whole entry): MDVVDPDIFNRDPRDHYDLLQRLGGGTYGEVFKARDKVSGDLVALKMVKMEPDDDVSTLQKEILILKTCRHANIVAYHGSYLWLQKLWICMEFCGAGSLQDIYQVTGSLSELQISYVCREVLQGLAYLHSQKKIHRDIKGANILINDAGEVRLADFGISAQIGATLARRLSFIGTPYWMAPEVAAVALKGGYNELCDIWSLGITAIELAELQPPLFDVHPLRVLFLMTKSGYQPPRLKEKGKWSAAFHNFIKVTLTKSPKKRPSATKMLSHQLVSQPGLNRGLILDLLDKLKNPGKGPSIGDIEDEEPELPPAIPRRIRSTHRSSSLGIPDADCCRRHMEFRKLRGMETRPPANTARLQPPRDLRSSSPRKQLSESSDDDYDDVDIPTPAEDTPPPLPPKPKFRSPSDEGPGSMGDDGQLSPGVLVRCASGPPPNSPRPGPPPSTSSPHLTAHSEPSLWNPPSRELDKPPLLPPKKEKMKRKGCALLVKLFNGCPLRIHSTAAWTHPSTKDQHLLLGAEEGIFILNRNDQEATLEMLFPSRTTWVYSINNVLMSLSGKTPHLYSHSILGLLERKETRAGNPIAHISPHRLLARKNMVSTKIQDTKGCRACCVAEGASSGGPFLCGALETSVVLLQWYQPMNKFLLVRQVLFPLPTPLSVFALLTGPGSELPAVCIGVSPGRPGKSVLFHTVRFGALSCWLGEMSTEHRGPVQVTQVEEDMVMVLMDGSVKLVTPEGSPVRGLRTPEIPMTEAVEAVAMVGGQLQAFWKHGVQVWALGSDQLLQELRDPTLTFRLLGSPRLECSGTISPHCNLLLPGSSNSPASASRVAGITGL
Excerpt: HPK1 Kinase Assay (Biochemical Assay).
A recombinant fusion protein consisting of full-length human HPK1 (MAP4K1) with an N-terminal Glutatione S-transferase (GST) tag was produced in insect cells Sf21 using the baculovirus expression system. GST-HPK1 protein was purified from cell lysates by glutathione Sepharose affinity chromatography. The assay is run in three continuous steps: 1) the HPK1 enzymatic kinase reaction, 2) an ATP depletion, and 3) the ADP detection, the steps 2 and 3 are performed with ADP-Glo™ Kinase Assay kit from Promega (V9101). Test compounds were prepared by 10-point serial dilution in dimethyl sulfoxide (DMSO) and 100 nL of each dilution was spotted onto a 384-well Optiplate (Perkin Elmer and Cat #6007299) by Labcyte Echo. 5 μL kinase reaction buffer (0.02% Brij-35, 2 mM DTT, 50 mM HEPES pH 7.5, MgCl2 10 mM, BSA 0.01% and O-glycerophosphate 12.5 mM) containing HPK1 (3.2 nM) enzyme was transferred to each well and incubated for 15 minutes at room temperature at 60% humidity. The enzymatic reaction was started by adding 5 μl of Start-Mix (10 μM ATP and 3.235 μM MBP). After 120 minutes, the reaction was stopped by adding 5 μL of ADP-Glo reagent (Promega, V9101) and incubating for 40 min. in the dark at 23° C. To determine the level of ADP, 10 μl ADP-Glo Detection solution was added and incubated for 1 hour at 23° C. in the dark. The plate was transferred to a Perkin Elmer EnVision (2104 Multilabel Reader) for luminescence detection and percent inhibition activity and IC50 value were determined using Genedata Screener.

HPK1 (SLP76 phosphorylation at Ser376 in Jurkat and EL-4 cells), sequence (Q92918 whole entry, looked up): as the sequence (Q92918 whole entry) above

SMILES | IC50 [1] [nM] | IC50 [2] [nM]
Cc1c(N2CCc3cnc(Nc4ccc([C@H](C)S(C)(=O)=O)cc4)nc3C2)cnc2c1NCCO2 (single isomer, unassigned) [Example 157] | < 500 | < 100
Cc1c(N2CCc3cnc(Nc4ccc([C@@H](C)S(C)(=O)=O)cc4)nc3C2)cnc2c1NCCO2 (single isomer, unassigned) [Example 158] | < 500 | < 100
Cc1c(N2CCc3cnc(Nc4ccc([C@H]5CCCS5(=O)=O)cc4)cc3C2)cnc2c1NCCO2 (single isomer, unassigned) [Example 169] | < 500 | < 100
Cc1c(N2CCc3cnc(Nc4ccc([C@@H]5CCCS5(=O)=O)cc4)cc3C2)cnc2c1NCCO2 (single isomer, unassigned) [Example 170] | < 500 | < 100
Cc1c(N2CCc3cnc(Nc4ccc(NCCN(C)C)c(F)c4)nc3C2)cnc2c1NCCO2 [Example 1, N1-[2-(dimethylamino)ethyl]-2-fluoro-N4-(7-{8-methyl-1H,2H,3H-pyrido[2,3-b][1,4]oxazin-7-yl}-5H,6H,7H,8H-pyrido[3,4-d]pyrimidin-2-yl)benzene-1,4-diamine] | < 500 | < 100
Cc1cc(Nc2cc3c(cn2)CCN(c2cnc4c(c2Cl)NCCO4)C3)ccc1NC(=O)CN1CCC1 [Example 2, 2-(azetidin-1-yl)-N-{4-[(6-{8-chloro-1H,2H,3H-pyrido[2,3-b][1,4]oxazin-7-yl}-5,6,7,8-tetrahydro-2,6-naphthyridin-3-yl)amino]-2-methylphenyl}acetamide] | < 500 | < 100
Cc1cc(Nc2ncc3c(n2)CN(c2cnc4c(c2C)NCCO4)CC3)ccc1NC(=O)CN1CCC1 [Example 3, 2-(azetidin-1-yl)-N-{2-methyl-4-[(7-{8-methyl-1H,2H,3H-pyrido[2,3-b][1,4]oxazin-7-yl}-5H,6H,7H,8H-pyrido[3,4-d]pyrimidin-2-yl)amino]phenyl}acetamide] | < 500 | < 100
Cc1c(N2CCc3cnc(Nc4ccc(NCCN5CCOCC5)c(F)c4)cc3C2)cnc2c1NCCO2 [Example 4, 2-fluoro-N4-(6-{8-methyl-1H,2H,3H-pyrido[2,3-b][1,4]oxazin-7-yl}-5,6,7,8-tetrahydro-2,6-naphthyridin-3-yl)-N1-[2-(morpholin-4-yl)ethyl]benzene-1,4-diamine] | < 500 | < 100
Cc1c(N2CCc3cnc(Nc4cnc(CS(C)(=O)=O)c(Cl)c4)nc3C2)cnc2c1NCCO2 [Example 5, 5-chloro-6-(methanesulfonylmethyl)-N-(7-{8-methyl-1H,2H,3H-pyrido[2,3-b][1,4]oxazin-7-yl}-5H,6H,7H,8H-pyrido[3,4-d]pyrimidin-2-yl)pyridin-3-amine] | > 1000 | < 100
Cc1c(N2CCc3cnc(Nc4ccc(NCCN5CCOCC5)c(F)c4)nc3C2)cnc2c1NCCO2 [Example 6, 2-fluoro-N4-(7-{8-methyl-1H,2H,3H-pyrido[2,3-b][1,4]oxazin-7-yl}-5H,6H,7H,8H-pyrido[3,4-d]pyrimidin-2-yl)-N1-[2-(morpholin-4-yl)ethyl]benzene-1,4-diamine] | < 500 | < 100
Cc1c(N2CCc3cnc(Nc4cc5n(n4)CC(=O)N(C(C)C)CC5)cc3C2)cnc2c1NCCO2 [Example 7, 2-[(6-{8-methyl-1H,2H,3H-pyrido[2,3-b][1,4]oxazin-7-yl}-5,6,7,8-tetrahydro-2,6-naphthyridin-3-yl)amino]-6-(propan-2-yl)-4H,5H,6H,7H,8H-pyrazolo[1,5-d][1,4]diazepin-7-one] | < 500 | < 100
Cc1cc(Nc2cc3c(cn2)CCN(c2cnc4c(c2C)NCCO4)C3)ccc1NC(=O)CN1CCC1 [Example 9, 2-(azetidin-1-yl)-N-{2-methyl-4-[(6-{8-methyl-1H,2H,3H-pyrido[2,3-b][1,4]oxazin-7-yl}-5,6,7,8-tetrahydro-2,6-naphthyridin-3-yl)amino]phenyl}acetamide] | < 500 | < 100
Cc1cc(Nc2ncc3c(n2)CN(c2cnc4c(c2C)NCCO4)CC3)ccc1NC(=O)CN1CCCC1 [Example 10, N-{2-methyl-4-[(7-{8-methyl-1H,2H,3H-pyrido[2,3-b][1,4]oxazin-7-yl}-5H,6H,7H,8H-pyrido[3,4-d]pyrimidin-2-yl)amino]phenyl}-2-(pyrrolidin-1-yl)acetamide] | < 500 | < 100
COc1cccc(F)c1N1CCc2cnc(Nc3cnc4c(c3)CN(C)CC4)nc2C1 [Example 120, 7-(2-fluoro-6-methoxyphenyl)-N-(6-methyl-5,6,7,8-tetrahydro-1,6-naphthyridin-3-yl)-5,6,7,8-tetrahydropyrido[3,4-d]pyrimidin-2-amine] | > 1000 | –
Cc1c(N2CCc3cnc(Nc4cc5n(n4)CC(=O)N(C4CC4)CC5)cc3C2)cnc2c1NCCO2 [Example 141, 6-cyclopropyl-2-[(6-{8-methyl-1H,2H,3H-pyrido[2,3-b][1,4]oxazin-7-yl}-5,6,7,8-tetrahydro-2,6-naphthyridin-3-yl)amino]-4H,5H,6H,7H,8H-pyrazolo[1,5-d][1,4]diazepin-7-one] | – | < 100
Cn1ccc2c(N3CCc4cnc(Nc5ccc(CS(C)(=O)=O)cc5)nc4C3)ccnc21 [Example 146, N-[4-(methanesulfonylmethyl)phenyl]-7-{1-methyl-1H-pyrrolo[2,3-b]pyridin-4-yl}-5H,6H,7H,8H-pyrido[3,4-d]pyrimidin-2-amine] | – | > 1000
Cc1cc(Nc2ncc3c(n2)CN(c2cnc4c(c2C)NCCO4)CC3)ccc1CC#N [Example 149, 2-{2-methyl-4-[(7-{8-methyl-1H,2H,3H-pyrido[2,3-b][1,4]oxazin-7-yl}-5H,6H,7H,8H-pyrido[3,4-d]pyrimidin-2-yl)amino]phenyl}acetonitrile] | – | < 100
Clc1c(N2CCc3cnc(Nc4ccc(-c5nnc(C6CC6)o5)cc4)nc3C2)cnc2c1NCCO2 [Example 159, 7-{8-chloro-1H,2H,3H-pyrido[2,3-b][1,4]oxazin-7-yl}-N-[4-(5-cyclopropyl-1,3,4-oxadiazol-2-yl)phenyl]-5H,6H,7H,8H-pyrido[3,4-d]pyrimidin-2-amine] | – | < 100
Cc1c(N2CCc3cnc(Nc4ccc(CS(C)(=O)=O)cc4)nc3C2)cnc2oc(=O)[nH]c12 [Example 160, 6-(2-{[4-(methanesulfonylmethyl)phenyl]amino}-5H,6H,7H,8H-pyrido[3,4-d]pyrimidin-7-yl)-7-methyl-1H,2H-[1,3]oxazolo[5,4-b]pyridin-2-one] | – | < 100
COCCS(=O)(=O)Cc1ccc(Nc2cc3c(cn2)CCN(c2cnc4c(c2C)NCCO4)C3)cc1 [Example 172, N-{4-[(2-methoxyethanesulfonyl)methyl]phenyl}-6-{8-methyl-1H,2H,3H-pyrido[2,3-b][1,4]oxazin-7-yl}-5,6,7,8-tetrahydro-2,6-naphthyridin-3-amine] | – | < 100
Cc1cc(Nc2ncc3c(n2)CN(c2cnc4c(c2Cl)NCCO4)CC3)ccc1CS(C)(=O)=O [Example 177, 7-{8-chloro-1H,2H,3H-pyrido[2,3-b][1,4]oxazin-7-yl}-N-[4-(methanesulfonylmethyl)-3-methylphenyl]-5H,6H,7H,8H-pyrido[3,4-d]pyrimidin-2-amine] | – | < 100
